Patent EP4032896A1, “THIAZOLOPYRIMIDONES AS INHIBITORS OF DDR1/2 AND THERAPEUTIC USES THEREOF” (Fundación del Sector Público Estatal Centro Nacional de …, priority 2021, dated 2022)

How the values were obtained:
[1] = biological target: T1, DDR1 (Mus musculus, UniProt Q03146); assay: Cellular assay: inhibition of Collagen I-induced DDR1 autophosphorylation in HEK293T cells transiently transfected with DDR1 plasmid (Western blot); type: cell-based, human; details: pcDNA3.1 DDR1 WT mouse plasmid, compound 1 h, then 10 µg/mL Collagen I 1 h, P-DDR1 (Y513), read-out: pDDR1 EC50
T1 construct: expressed in transfected cells; host or cells: HEK293T
T1 sequence (Q03146 20-911): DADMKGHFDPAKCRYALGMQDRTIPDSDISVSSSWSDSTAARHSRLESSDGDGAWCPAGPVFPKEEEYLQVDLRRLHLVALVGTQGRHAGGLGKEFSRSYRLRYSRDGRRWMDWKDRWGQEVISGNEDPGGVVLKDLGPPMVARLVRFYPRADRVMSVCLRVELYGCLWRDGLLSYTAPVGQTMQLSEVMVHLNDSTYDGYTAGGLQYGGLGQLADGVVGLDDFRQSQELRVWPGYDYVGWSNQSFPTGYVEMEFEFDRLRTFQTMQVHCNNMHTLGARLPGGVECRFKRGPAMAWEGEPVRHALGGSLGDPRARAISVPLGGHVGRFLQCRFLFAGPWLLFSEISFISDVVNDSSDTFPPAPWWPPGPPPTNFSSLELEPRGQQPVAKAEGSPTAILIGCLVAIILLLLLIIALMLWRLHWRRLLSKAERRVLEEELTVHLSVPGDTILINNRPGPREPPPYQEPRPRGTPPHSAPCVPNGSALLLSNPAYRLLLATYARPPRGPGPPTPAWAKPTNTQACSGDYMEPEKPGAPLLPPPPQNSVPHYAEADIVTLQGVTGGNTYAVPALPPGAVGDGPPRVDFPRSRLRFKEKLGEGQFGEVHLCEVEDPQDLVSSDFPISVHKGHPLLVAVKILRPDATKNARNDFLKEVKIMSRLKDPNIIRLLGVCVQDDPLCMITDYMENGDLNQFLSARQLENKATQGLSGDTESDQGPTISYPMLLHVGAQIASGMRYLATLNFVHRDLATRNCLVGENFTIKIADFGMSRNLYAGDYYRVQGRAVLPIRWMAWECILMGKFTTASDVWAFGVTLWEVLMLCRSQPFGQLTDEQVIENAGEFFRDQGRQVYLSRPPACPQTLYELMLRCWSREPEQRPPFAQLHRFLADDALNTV
Description: DDR1/2 cellular assay: Transient transfection of HEK293T cells with DDR1 plasmid is used to study the inhibition of the autophosphorylation of DDR1 induced by Collagen I in cells. HEK293T are seeded, 6x10^5 cells per well in 6-well plates and incubated for 6 h at 37 °C, 5% CO2. Then, cells are transfected using Effectene reactive (Quiagen) with pcDNA3.1 DDR1 WT mouse plasmid. Cells are incubated with transfection complexes under normal growth conditions for 24 h. After that, medium is replaced with fresh medium and cells are incubated for an additional 18 h. Eight serial 1:3 compound dilutions are made in DMSO. The compounds are added to each well of 6 well cell plates and are incubated at 37 °C under CO2 atmosphere 1 h. DDR1's autophosphorylation is stimulated by 1h treatment with 10 µg/mL Collagen I. Then, cells are washed in PBS, lyse adding 100 µl of complete RIPA protein lysis buffer (RIPA Buffer, 1 mM DTT, 5 mM Bezamidine, 10 µg/mL Aprotinin, 10 µg/mL Leupeptin, 710 ng/mL Pepstatin A, 100 µg/mL Trypsin Inhibitor, 40 µg/mL Bestatin, completed with PhosSTOP EASYpack and complete Mini, EDTA-free) and incubated 20 minutes at 4 °C and then centrifugated. Lysates are kept at -80 °C. The protein content of the lysates is determined by DC protein assay (Biorad, Ref. 5000116). The proteins are resolved by SDS-PAGE and transferred to nitrocellulose membrane (GE Healthcare #10600003). The membranes are incubated overnight at 4 °C with antibodies specific for DDR1 (D1G6) (Cell signaling #5583), P-DDR1 (Y513) (E1N8F) (Cell Signaling # 14531) they are washed and then incubated with Alexa Fluor 680 goat anti-rabbit IgG secondary antibodies (Invitrogen, A21076). The bands are visualized and quantified using an Odyssey infrared imaging system (Li-Cor Biosciences). The percentage of DDR1 phosphorylation is finally plotted against concentration for each compound and EC50s for intracellular DDR1 inhibition are calculated using ActivityBase from IDBS.

[2] = biological target: T2, DDR1 (Homo sapiens, UniProt Q08345); assay: LanthaScreen Eu-Kinase Binding Assay (TR-FRET tracer displacement), DDR1; details: catalytic domain GST Tag DDR1; Kinase Tracer 178
T2 construct: The enzymes were purchased as a catalytic domain GST Tag DDR1(#PR6913A); purchased ThermoFisher PR6913A
T2 sequence (Q08345 610-905 limits assumed): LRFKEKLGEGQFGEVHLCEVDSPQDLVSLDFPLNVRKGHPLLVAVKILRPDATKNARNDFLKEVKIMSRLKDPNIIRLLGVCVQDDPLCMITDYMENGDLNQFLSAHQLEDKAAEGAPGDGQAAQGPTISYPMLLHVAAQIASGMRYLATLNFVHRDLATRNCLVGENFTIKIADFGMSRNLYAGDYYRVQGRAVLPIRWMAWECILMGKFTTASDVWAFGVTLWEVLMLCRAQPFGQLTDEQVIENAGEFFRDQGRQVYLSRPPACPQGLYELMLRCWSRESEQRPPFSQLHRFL
Excerpt: (§1) DDR1/2 binding assay: The binding assay relies on the LanthaScreen ™ Eu-Kinase Binding Assay (ThermoFisher Scientfic). This is a kinase assay platform based on measuring the binding and displacement of an Alexa Fluor® conjugate of an ATP-competitive kinase inhibitor or tracer at a kinase active site (Kinase Tracer 178. #PV5593). Binding of the tracer to the kinase is detected by addition of a europium (Eu)-labeled anti-GST antibody (#PV 5594) which specifically labels the kinase of interest. This binding results in a high degree of fluorescence resonance energy transfer (FRET), whereas displacement of the tracer with a kinase inhibitor results in a loss of FRET. The enzymes were purchased as a catalytic domain GST Tag DDR1(#PR6913A) and DDR2 (#PR7167A) from ThermoFisher. Assay conditions were as indicated by the kit manufacturers. Assays were performed in 384-well plates. The final read out was generated using an EnVision plate reader (Perkin-Elmer). The emission ratio was calculated by dividing the acceptor/tracer emission (665 nm) by the antibody/donor emission (615 nm). Values were plotted against the inhibitor concentration and fit to a sigmoid dose-response curve using Activity base by IDBS software.

[3] = biological target: T3, DDR2 (Homo sapiens, UniProt Q16832); assay: LanthaScreen Eu-Kinase Binding Assay (TR-FRET tracer displacement), DDR2; details: catalytic domain GST Tag DDR2; Kinase Tracer 178
T3 construct: The enzymes were purchased as a catalytic domain GST Tag DDR1(#PR6913A) and DDR2 (#PR7167A); purchased ThermoFisher PR7167A
T3 sequence (Q16832 563-849 limits assumed): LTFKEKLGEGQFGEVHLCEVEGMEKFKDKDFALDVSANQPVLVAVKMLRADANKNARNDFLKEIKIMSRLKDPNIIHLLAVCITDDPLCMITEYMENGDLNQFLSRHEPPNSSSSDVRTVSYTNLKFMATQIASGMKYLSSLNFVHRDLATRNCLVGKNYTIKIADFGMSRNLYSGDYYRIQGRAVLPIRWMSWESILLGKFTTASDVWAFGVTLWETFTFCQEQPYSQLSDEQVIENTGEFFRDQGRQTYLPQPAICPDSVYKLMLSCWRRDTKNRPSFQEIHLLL
Excerpt: as §1

EC50 [1] [nM] | IC50 [2] [nM] | IC50 [3] [nM] | SMILES
36 | 5.19 | 24.2 | NS(=O)(=O)c1cccc(Nc2nccc(-c3sc4nccc(=O)n4c3-c3ccccc3Cl)n2)c1 [Compound 37, 3-{4-[3-(2-Chloro-phenyl)-5-oxo-5H-thiazolo[3,2-a]pyrimidin-2-yl]-pyrimidin-2-ylamino}-benzenesulfonamide]
19.3 | 5.46 | 16.8 | COc1ccc(-c2c(-c3ccnc(Nc4cccc(N5CCN(CCO)CC5)c4)n3)sc3nccc(=O)n23)cc1 [Compound 53, 2-(2-{3-[4-(2-Hydroxy-ethyl)-piperazin-1-yl]-phenylamino}-pyrimidin-4-yl)-3-(4-methoxy-phenyl)-thiazolo[3,2-a]pyrimidin-5-one]
21.1 | 4.54 | 15 | CN1CCN(c2ccc(Nc3nccc(-c4sc5nccc(=O)n5c4-c4ccc(O)cc4)n3)cc2)CC1 [Compound 57, 3-(4-Hydroxy-phenyl)-2-{2-[4-(4-methyl-piperazin-1-yl)-phenylamino]-pyrimidin-4-yl}-thiazolo[3,2-a]pyrimidin-5-one]
21.8 | 2.28 | 6.37 | CN1CCN(c2ccc(Nc3nccc(-c4sc5nccc(=O)n5c4-c4ccccc4O)n3)cc2)CC1 [Compound 55, 3-(2-Hydroxy-phenyl)-2-{2-[4-(4-methyl-piperazin-1-yl)-phenylamino]-pyrimidin-4-yl}-thiazolo[3,2-a]pyrimidin-5-one]
33.4 | 21.1 | 79 | COc1cccc(-c2c(-c3ccnc(Nc4cccc(N5CCN(CCO)CC5)c4)n3)sc3nccc(=O)n23)c1 [Compound 50, 2-(2-{3-[4-(2-Hydroxy-ethyl)-piperazin-1-yl]-phenylamino}-pyrimidin-4-yl)-3-(3-methoxy-phenyl)-thiazolo[3,2-a]pyrimidin-5-one]
12.2 | 5.63 | 17.5 | CN1CCN(c2ccc(Nc3nccc(-c4sc5nccc(=O)n5c4-c4cccc(O)c4)n3)cc2)CC1 [Compound 56, 3-(3-Hydroxy-phenyl)-2-{2-[4-(4-methyl-piperazin-1-yl)-phenylamino]-pyrimidin-4-yl}-thiazolo[3,2-a]pyrimidin-5-one]
27.5 | 19.3 | 71.2 | COc1ccccc1-c1c(-c2ccnc(Nc3ccc(N4CCN(C)CC4)cc3)n2)sc2nccc(=O)n12 [Compound 48, 3-(2-Methoxy-phenyl)-2-{2-[4-(4-methyl-piperazin-1-yl)-phenylamino]-pyrimidin-4-yl}-thiazolo[3,2-a]pyrimidin-5-one]
27.8 | 9.5 | 24.4 | COc1ccccc1-c1c(-c2ccnc(Nc3cccc(N4CCN(CCO)CC4)c3)n2)sc2nccc(=O)n12 [Compound 47, 2-(2-{3-[4-(2-Hydroxy-ethyl)-piperazin-1-yl]-phenylamino}-pyrimidin-4-yl)-3-(2-methoxy-phenyl)-thiazolo[3,2-a]pyrimidin-5-one]
7.63 | 4.23 | 12.6 | CN1CCN(c2ccc(Nc3nccc(-c4sc5nccc(=O)n5c4-c4ccc(Cl)cc4)n3)cc2)CC1 [Compound 45, 3-(4-Chloro-phenyl)-2-{2-[4-(4-methyl-piperazin-1-yl)-phenylamino]-pyrimidin-4-yl}-thiazolo[3,2-a]pyrimidin-5-one]
40.4 | 6.24 | 36.9 | O=c1ccnc2sc(-c3ccnc(Nc4cccc(N5CCN(CCO)CC5)c4)n3)c(-c3cccc(Cl)c3)n12 [Compound 41, 3-(3-Chloro-phenyl)-2-(2-{3-[4-(2-hydroxy-ethyl)-piperazin-1-yl]-phenylamino}-pyrimidin-4-yl)-thiazolo[3,2-a]pyrimidin-5-one]
339 | 69.9 | 186 | O=c1ccnc2sc(-c3ccnc(Nc4ccccc4)n3)c(-c3ccccc3)n12 [Compound 29, 3-Phenyl-2-(2-phenylamino-pyrimidin-4-yl)-thiazolo[3,2-a]pyrimidin-5-one]
58.7 | 15.3 | 90.6 | CC(C)c1c(-c2ccnc(Nc3cccc(N4CCN(CCO)CC4)c3)n2)sc2nccc(=O)n12 [Compound 64, 2-(2-{3-[4-(2-Hydroxy-ethyl)-piperazin-1-yl]-phenylamino}-pyrimidin-4-yl)-3-isopropyl-thiazolo[3,2-a]pyrimidin-5-one]
31.9 | 5.43 | 18.3 | O=c1ccnc2sc(-c3ccnc(Nc4cccc(N5CCN(CCO)CC5)c4)n3)c(-c3cccc(Cl)c3Cl)n12 [Compound 60, 3-(2,3-Dichloro-phenyl)-2-(2-{3-[4-(2-hydroxy-ethyl)-piperazin-1-yl]-phenylamino}-pyrimidin-4-yl)-thiazolo[3,2-a]pyrimidin-5-one]
87.4 | 13.9 | 50 | NS(=O)(=O)c1cccc(Nc2nccc(-c3sc4nccc(=O)n4c3-c3ccccc3)n2)c1 [Compound 30, 3-[4-(5-Oxo-3-phenyl-5H-thiazolo[3,2-a]pyrimidin-2-yl)-pyrimidin-2-ylamino]-benzenesulfonamide]
163 | 118 | 466 | O=c1ccnc2sc(-c3ccnc(Nc4cccc(N5CCN(CCO)CC5)c4)n3)c(C3CC3)n12 [Compound 65, 3-Cyclopropyl-2-(2-{3-[4-(2-hydroxy-ethyl)-piperazin-1-yl]-phenylamino}-pyrimidin-4-yl)-thiazolo[3,2-a]pyrimidin-5-one]
